Measurements taken from ChEMBL document CHEMBL5584244, “Discovery of novel pyrrolo[2,1-c][1,4]benzodiazepine-3,11-dione (PBD) derivatives as selective HDAC6 inhibitors for the efficient treatment of idiopathic pulmonary fibrosis (IPF) in vitro and in vivo” (Eur J Med Chem, 2024).

Target: T1, Protein deacetylase HDAC6 (Homo sapiens, UniProt Q9UBN7)
T1 sequence (Q9UBN7 whole entry): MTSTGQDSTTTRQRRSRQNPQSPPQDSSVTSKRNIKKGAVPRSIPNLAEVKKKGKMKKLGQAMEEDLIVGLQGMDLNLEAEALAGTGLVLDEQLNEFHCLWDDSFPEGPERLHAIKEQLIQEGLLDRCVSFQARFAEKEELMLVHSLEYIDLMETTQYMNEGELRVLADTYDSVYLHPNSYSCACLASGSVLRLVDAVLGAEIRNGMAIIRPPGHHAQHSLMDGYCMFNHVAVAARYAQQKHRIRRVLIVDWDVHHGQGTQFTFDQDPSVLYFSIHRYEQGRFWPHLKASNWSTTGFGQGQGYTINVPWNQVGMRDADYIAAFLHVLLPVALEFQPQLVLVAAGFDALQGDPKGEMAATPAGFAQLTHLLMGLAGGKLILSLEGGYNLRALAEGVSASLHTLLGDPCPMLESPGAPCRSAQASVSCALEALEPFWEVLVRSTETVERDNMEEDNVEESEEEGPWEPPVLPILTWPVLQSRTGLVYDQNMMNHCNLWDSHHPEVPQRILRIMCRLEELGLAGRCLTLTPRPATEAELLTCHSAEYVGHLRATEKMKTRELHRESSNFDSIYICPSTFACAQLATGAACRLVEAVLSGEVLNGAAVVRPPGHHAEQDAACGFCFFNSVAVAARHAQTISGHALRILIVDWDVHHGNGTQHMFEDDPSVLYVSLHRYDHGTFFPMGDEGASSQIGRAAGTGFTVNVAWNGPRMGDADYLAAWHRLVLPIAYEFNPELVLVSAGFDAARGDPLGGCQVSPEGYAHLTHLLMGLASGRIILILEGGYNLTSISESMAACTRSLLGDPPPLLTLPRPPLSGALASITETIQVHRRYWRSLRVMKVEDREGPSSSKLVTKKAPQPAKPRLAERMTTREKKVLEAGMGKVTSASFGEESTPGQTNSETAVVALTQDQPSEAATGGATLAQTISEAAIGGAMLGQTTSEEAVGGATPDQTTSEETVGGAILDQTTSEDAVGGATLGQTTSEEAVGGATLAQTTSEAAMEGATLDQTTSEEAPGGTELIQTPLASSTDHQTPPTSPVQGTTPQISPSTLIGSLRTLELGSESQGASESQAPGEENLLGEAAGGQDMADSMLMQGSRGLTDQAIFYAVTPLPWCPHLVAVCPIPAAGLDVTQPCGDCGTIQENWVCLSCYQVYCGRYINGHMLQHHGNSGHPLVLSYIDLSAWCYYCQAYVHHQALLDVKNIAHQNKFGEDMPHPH
Test: Inhibition of recombinant human full length HDAC6 using Boc-Lys (Ac)-AMC as substrate incubated for 120 mins by fluorescence analysis

| Compound | IC50 |
| --- | --- |
| O=C(CCCCCCN1C(=O)[C@@H]2CCCN2Cc2ccccc21)NO | 294 nM |
| O=C(CCCCCCCN1C(=O)[C@@H]2CCCN2Cc2ccccc21)NO | 291 nM |
| COc1cc2c(cc1OCc1ccccc1)CN1C(=O)CC[C@H]1C(=O)N2Cc1ccc(CC(=O)NO)cc1 | 22.3 nM |
| COc1cc2c(cc1O)CN1C(=O)CC[C@H]1C(=O)N2CCCCCCCC(=O)NO | 176 nM |
| O=C(NO)c1ccccc1CN1C(=O)[C@@H]2CCCN2Cc2ccccc21 | > 300 nM |
| COc1cc2c(cc1OCc1ccccc1)CN1C(=O)CC[C@H]1C(=O)N2CCCCCCCC(=O)NO | 275 nM |

The next molecules have a lower IC50 than those just listed; values first:

| IC50 | Compound |
| --- | --- |
| 21.2 nM | COc1cc2c(cc1OCc1ccccc1)CN1C(=O)CC[C@H]1C(=O)N2Cc1ccc(C(=O)NO)cc1 |
| 17.4 nM | COc1cc2c(cc1OCc1ccccc1)CN1C(=O)CC[C@H]1C(=O)N2CCCCCC(=O)NO |
| 15.6 nM | COc1cc2c(cc1O)CN1C(=O)CC[C@H]1C(=O)N2CCCCCC(=O)NO |
| 12.1 nM | COc1cc2c(cc1OCc1ccccc1)CN1C(=O)CC[C@H]1C(=O)N2CCCCCCC(=O)NO |
